{"source": "patent CN103483288A", "about": "“一类3,4-二氯异噻唑双酰肼类化合物及其制备方法和用途” (priority 2013, dated 2014)", "type_in_all_cases": "in vivo", "key": {"[1]": {"test_system": "diamondback moth (小菜蛾)", "test": "小菜蛾杀虫活性, 叶片药膜法", "details": "for mortality at 200 µg/mL: Plutella xylostella, read-out: kill rate"}, "[2]": {"test_system": "tobacco mosaic virus (烟草花叶病毒(TMV))", "test": "直接抗TMV活性, 半叶法", "details": "for inhibition at 100 µg/mL: Tobacco mosaic virus"}, "[3]": {"test_system": "tobacco mosaic virus (烟草花叶病毒(TMV))", "test": "诱导烟草抗TMV活性 (活体诱导)", "details": "for inhibition at 100 µg/mL: Tobacco mosaic virus, read-out: antiviral activity (inhibition rate): induction activity"}, "[4]": {"details": "200 mg/L, 2nd instar larvae, 96 h or 120 h"}, "[5]": {"details": "induced resistance of tobacco to TMV"}, "[6]": {"details": "TMV, 100 mg/L, read-out: antiviral activity (inhibition rate): curative activity"}, "[7]": {"details": "TMV, 100 mg/L, read-out: antiviral activity (inhibition rate): inactivation activity"}, "[8]": {"details": "TMV, 100 mg/L, read-out: antiviral activity (inhibition rate): protective activity"}, "[9]": {"details": "induced resistance of tobacco to TMV, 100 mg/L"}}, "note": "Like-named read-outs stand apart in the source and are kept apart here.", "data": [{"smiles": "O=[N+]([O-])NC1=NCCN1Cc1ccc(Cl)nc1", "note": "[吡虫啉]", "values": [{"measurement": "kill rate", "setting": "[1]; [4]", "result": 0, "unit": "%"}, {"measurement": "mortality at 200 µg/mL", "setting": "[1]", "result": 0, "unit": "%"}]}, {"smiles": "CNCC(=O)NC(CO)C(=O)NC1C(C(N)=O)OC(n2ccc(N)nc2=O)C(O)C1O", "note": "(stereo not shown) [宁南霉素]", "values": [{"measurement": "direct antiviral activity (in words)", "setting": "[2]; TMV", "result": "具有很好的直接抗病毒活性"}, {"measurement": "inhibition at 100 µg/mL", "setting": "[2]; read-out: antiviral activity (inhibition rate): curative activity", "result": "41.7 ± 2.25", "unit": "%"}, {"measurement": "inhibition at 100 µg/mL", "setting": "[2]; read-out: antiviral activity (inhibition rate): inactivation activity", "result": "43.1 ± 4.07", "unit": "%"}, {"measurement": "inhibition at 100 µg/mL", "setting": "[2]; read-out: antiviral activity (inhibition rate): protective activity", "result": "42.9 ± 1.59", "unit": "%"}, {"measurement": "inhibition at 100 µg/mL", "setting": "[3]", "result": "25 ± 3.75", "unit": "%"}, {"measurement": "induction activity (in words)", "setting": "[3]; [5]", "result": "几乎没有诱导活性"}]}, {"smiles": "CNC(=O)c1cc(Cl)cc(C)c1NC(=O)c1cc(Br)nn1-c1ncccc1Cl", "note": "[氯虫苯甲酰胺]", "values": [{"measurement": "kill rate", "setting": "[1]; [4]", "result": 100, "unit": "%"}, {"measurement": "mortality at 200 µg/mL", "setting": "[1]; [4]", "result": 100, "unit": "%"}]}, {"smiles": "NC(=O)c1ncn([C@@H]2O[C@H](CO)[C@@H](O)[C@H]2O)n1", "note": "[病毒唑]", "values": [{"measurement": "direct antiviral activity (in words)", "setting": "[2]; TMV", "result": "具有很好的直接抗病毒活性"}, {"measurement": "inhibition at 100 µg/mL", "setting": "[2]; [6]", "result": "44.1 ± 2.94", "unit": "%"}, {"measurement": "inhibition at 100 µg/mL", "setting": "[2]; [7]", "result": "25.6 ± 3.87", "unit": "%"}, {"measurement": "inhibition at 100 µg/mL", "setting": "[2]; [8]", "result": "46 ± 4.2", "unit": "%"}, {"measurement": "inhibition at 100 µg/mL", "setting": "[3]; [9]", "result": "27.1 ± 4.39", "unit": "%"}, {"measurement": "induction activity (in words)", "setting": "[3]; [5]", "result": "几乎没有诱导活性"}]}, {"smiles": "Cc1ccc(NC(=O)c2snnc2C)cc1Cl", "note": "[TDL, 噻酰菌胺]", "values": [{"measurement": "inhibition at 100 µg/mL", "setting": "[2]; [6]", "result": "23.5 ± 4.41", "unit": "%"}, {"measurement": "inhibition at 100 µg/mL", "setting": "[2]; [7]", "result": "20.5 ± 3.88", "unit": "%"}, {"measurement": "inhibition at 100 µg/mL", "setting": "[2]; [8]", "result": "20.1 ± 6.41", "unit": "%"}, {"measurement": "inhibition at 100 µg/mL", "setting": "[3]; [9]", "result": "47.5 ± 3.75", "unit": "%"}, {"measurement": "induction activity (in words)", "setting": "[3]; [5]", "result": "具有很好的诱导烟草产生对TMV的抗性"}, {"measurement": "antiviral activity (inhibition rate): induction activity", "setting": "[3]; [9]", "result": 47, "unit": "%"}]}]}
